Measured values: PMC10870435, “A novel complement C3 inhibitor CP40-KK protects against experimental pulmonary arterial hypertension via an inflammasome NLRP3 associated pathway” (Journal of Translational Medicine, 2024)
Bridge positions count the residues as written; N and C are the ends. Square brackets hold non-standard residues; d marks the D form. Peptide text beside a SMILES is read from it. Trp(1-Me) = Cn1cc(C[C@H](N)C(=O)O)c2ccccc21; NMeI = CC[C@H](C)[C@H](NC)C(=O)O; Sar = CNCC(=O)O

How the values were obtained:
rat C3 = experiment: ELISA, direct binding of plasma C3 to coated peptide; conditions: peptide coated on ELISA plate, rat plasma dilutions, anti-C3 antibody, OD 450 nm
Method: CP40-KK and its control peptide were dissolved in coating buffer at different concentration and then added to wells of ELISA plate as designed. The coated plate was incubated at 4 °C overnight. Then the plate was incubated with plasma with the indicated dilution at 37 °C for 2 h. Next, the plate was incubated with the C3 antibody (1:2000, MP biomedicals, Irvine, CA, USA) at 37 °C for 2 h. Then the plate was washed for 3 times and incubated with corresponding HRP conjugated secondary antibodies (1:2000, Abcam, Cambridge, UK) at 37° for 1 h. Finally, TMB substrate was added to each well for indicated time at 37 °C and then the stop solution was added to stop the TMB reaction. OD values were measured at 450 nm using a microplate reader (Bio-tek, Vermont, USA). The coating buffer, wash buffer, TMB substrate, and stop solution were all bought from Boster Biological Technology (Wuhan, China).
CP40-KK and its control peptide were dissolved in coating buffer at different concentrations and then added to wells of ELISA plate as designed. The coated plate was incubated at 4°C overnight. After removing the coating buffer from the wells, the plate was washed using wash buffer 3 times. Then the plate was incubated with plasma with the indicated dilution at 37°C for 2h. […] OD values were measured at 450nm using a microplate reader (Bio-tek, Vermont, USA). […]

C3 activation (C3a) = experiment: Plasma C3a western blot in PAH rats; assay type: in vivo; conditions: western blot of rat plasma; n = 6 per group
Method: In the current study, two animal experiments were conducted successively. 30 rats were randomly divided into two groups (control group and MCT group, n = 15 per group) in the first experiment. MCT group rats received a single intraperitoneally injection of MCT (40 mg/kg) on day 1 to induce PAH while control group rats received an equivoluminal saline injection intraperitoneally. For the second animal experiment, the rats were assigned into four groups (control group, MCT group, CP40-KK group, and MCT + CP40-KK group, n = 15 per group). The control group was given the same volume of saline subcutaneously while the CP40-KK group rats only received CP40-KK (2 mg/kg) by subcutaneous injection from day 15 to day 28 continuously. […]
[…] Protein concentration was quantified using a BCA reagent. […] To compare and quantify levels of proteins, the density of each band was measured using Image J software. Equal loading for total cell or tissue lysates was determined by β-Actin western blot.
[…] Protein concentration was quantified using a BCA reagent. […] To compare and quantify levels of proteins, the density of each band was measured using Image J software. Equal loading for total cell or tissue lysates was determined by β-Actin western blot^3,4.

[1] = Plasma lipids and lung oxidative stress markers in PAH rats; assay type: in vivo, rat
Method: Blood samples were obtained from rats, and plasma lipid levels were measured with a total cholesterol assay kit and triglyceride assay kit (Nanjing Jiancheng Bioengineering Institute, Nanjing City, China). 2.5μL plasma or 2.5μL calibrator was added into 250μL working solution, and then incubated at 37 ℃ for 10 minutes. OD values were measured at 500nm using a microplate reader (Bio-tek, Vermont, USA).
Figure S2. The effect of CP40-KK on oxidative stress in the lungs of the PAH rats. Representative Western blots (A) and quantification (B) of the NOX1, Gp91phox, NOX4 and SOD2 in lung homogenates of rat (B; n=6 per group).

[2] = tested on: pulmonary vascular remodeling markers (α-SMA, PCNA); experiment: Lung α-SMA immunohistochemistry and PCNA western blot in PAH rats; assay type: in vivo, rat; conditions: MCT + CP40-KK vs MCT group
Method: In the current study, two animal experiments were conducted successively. 30 rats were randomly divided into two groups (control group and MCT group, n = 15 per group) in the first experiment. MCT group rats received a single intraperitoneally injection of MCT (40 mg/kg) on day 1 to induce PAH while control group rats received an equivoluminal saline injection intraperitoneally. For the second animal experiment, the rats were assigned into four groups (control group, MCT group, CP40-KK group, and MCT + CP40-KK group, n = 15 per group). […]
After hemodynamic measurements, the lungs were perfused with cold phosphate-buffered saline (PBS) and fixed in 4% formaldehyde for 24 h. […] Immunolabels were detected with 3, 3-Diaminobenzidine (DAB), after which the nuclei were counterstained with hematoxylin. […] For quantification analysis, the mean integrated optical density (IOD) for immunohistochemistry was determined using Image J software (National Institutes of Health, Bethesda, MD).
Proteins were collected from the fresh frozen-rat lung tissues using RIPA lysis buffer. Protein concentration was quantified using a BCA reagent. […] To compare and quantify levels of proteins, the density of each band was measured using Image J software. Equal loading for total cell or tissue lysates was determined by β-Actin western blot.

Tail bleeding time = assay type: in vivo, rat; conditions: rats, after 2 weeks of treatment

For CC[C@H](C)[C@H](NC(=O)[C@H](N)Cc1ccc(O)cc1)C(=O)N[C@H]1CSSC[C@@H](C(=O)N(C)[C@H](C(=O)N[C@@H](CCCCN)C(=O)N[C@@H](CCCCN)C(N)=O)[C@@H](C)CC)NC(=O)[C@H](CCCNC(=N)N)NC(=O)[C@H](Cc2c[nH]cn2)NC(=O)CN(C)C(=O)[C@H](Cc2c[nH]c3ccccc23)NC(=O)[C@H](CC(=O)O)NC(=O)[C@H](CCC(N)=O)NC(=O)[C@H](Cc2cn(C)c3ccccc23)NC(=O)[C@H](C(C)C)NC1=O [CP40-KK] (H-[dY]ICV[Trp(1-Me)]QDW[Sar]HRC[NMeI]KK-NH2; disulfide 3-12 (inferred)), the “direct binding of rat C3 and CP40-KK (OD450)” value (rat C3) was “specific binding”, the “plasma C3a (C3 activation ex vivo)” value (C3 activation (C3a)) was “significantly inhibit the C3 activation” and the “effect on oxidative stress (NOX1, Gp91phox, NOX4, SOD2)” value ([1]; lung homogenates, western blot, Figure S2, n=6 per group) was “no effect”. The “effect on lipid metabolism (triglyceride, cholesterol)” value ([1]; rat plasma, PAH model groups, Figure S1) was “no effect”, the “expression of α-SMA in walls of small pulmonary arteries” value ([2]; immunohistochemistry) was “reduced significantly” and the “PCNA expression in lung homogenates” value ([2]; western blot, n = 6 per group) was “decreased”. For the same compound, the tail bleeding time (Tail bleeding time) was “significantly prolong”.
